The values that follow come from patent publication US12624044B2, “SMARCA degraders and uses thereof” (Kymera Therapeutics, Inc., priority 2019, dated 2026).

Where only a bound is given, the exact number is not on record here.

Common to all, as to type: cell-based
For one experiment, the target named is T1, SMARCA4 (Homo sapiens, UniProt P51532).
T1 construct: SMARCA2 and SMARCA4 protein degradation in MV4-11 cells; endogenous in cells; host or cells: MV4-11
The experiment is described as follows: SMARCA4 Western blot MV4-11 degradation. Conditions: 24 h; for Dmax: MV4-11, MV4-11 cells, read-out: SMARCA4 WB MV411 degradation 24 h: Average Dmax %; for DC50: MV4-11 cells, read-out: SMARCA4 WB MV411 degradation 24 h: Average external-Abs DC50. The protocol: Cells were seeded into 6-well plates (MV4-11: 4×10^6 cells/well/1 ml) and 1 ml of 2× compound solution was added into the well to make the final concentration and the plates were mixed well and incubated for 24 hours (No cytotoxicity was observed). The cell were collected with media and spun at 3000 rpm for 5 minutes. The supernatant was aspirated and the well and the cells were washed with cold PBS once and combined for centrifugation again; the supernatant aspirated again. 200 ul pre-chilled RIPAlysis buffer (Boston BioProducts BP-115D) with protease/phosphatase inhibitor (Roche 05892791001/Roche 04906837001) was directly added into the tube to lyze the cells for 20 minutes on ice. The cell lysate were collected into EP tubes and spun at 13000 rpm for 20 minutes and 72 ul supernatant was transferred to a fresh EP tube containing 18 ul of 5× loading buffer (Beyotime Bio P0015) to make the loading samples. The samples were heated to 100° C. for 10 minutes and cooled to RT and microcentrifuged. 20 ul of samples were loaded onto SDS-PAGE gel (Novex, WG1402BOX) and the gel was run at 80 V for 20 minutes and 120 V for 1.5 hours. The samples were electrotransfer to a NC membrane using wet-transfer method with 250 mA for 2.5 hours. The membrane was blocked with LICOR blocking buffer (LI-COR, 927-50000) for 1 hour. The membrane was washed three times with TBST (CST #9997S), 5 minutes each. Incubation was performed with primary antibody prepared in blocking buffer with 0.1% Tween-20 (Solarbio, P8220) at 4° C. overnight (Anti-SMARCA2/BRM antibody (ab15597) 1:500; Anti-BRG1 antibody [EPR3912] (ab108318) 1:1000; Rabbit anti-Baf180 antibody [EPR15860] (Abcam, ab196022) 1:1000; mouse anti-beta-Actin (8H10D10) (CST #3700) 1:10000). The membrane was washed three times with TBST, 5 minutes each. Incubation with secondary antibody was performed for 1 hour at RT (anti-rabbit IgG (Licor, 926-32211) 1:5000; anti-mouse IgG (LI-COR, 926-68070) 1:5000). The membrane was washed three times with TBST, 5 minutes each and lastly the LiCOR was read.
The letter codes for the percentage of SMARCA degradation after 24 hours (Dmax %) include: A (>90% degradation), B (>70-90% degradation), C (50-70% degradation), and D (<50% degradation).

Experiment [1] concerns the target T2, SMARCA2 (Homo sapiens, UniProt P51531). The experiment in a line: MSD SMARCA2 degradation in NCI-H1299 cell line (24 h). On the set-up: HC: NCI-H1299 cells treated with DMSO; host or cells: NCI-H1299. Conditions: for Dmax: NCI-H1299, NCI-H1299 cells; for DC50: NCI-H1299 cells, read-out: SMARCA2 MSD H1299 degradation 24 h: External Abs-DC50. An outline of the steps: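 SMARCA2 measured by MSD electrochemiluminescence (primary 0.3 ug/ml, secondary 1 ug/ml) on lysates from NCI-H1299 cells exposed to compounds for 24 h across nine 3-fold dilutions. Signal scaled from A2780 cells (no SMARCA2) to DMSO-treated H1299 controls, and maximal degradation after 24 h reported in letter categories.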

In experiment [2] the target is T2, SMARCA2. The experiment is described as follows: MSD SMARCA2 degradation in A549 cell line. The settings on record: 24 h; for DC50: A549 cells, read-out: SMARCA2 MSD A549 degradation 24 h: Average external-Abs DC50. An outline of the steps: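 SMARCA2 remaining was measured by MSD electrochemiluminescence on RIPA lysates (anti-SMARCA2 plus SULFO-TAG anti-rabbit). Prior exposure: 24 h of A549 cells to a 10-point, 3-fold dilution series topping at 1000 nM final; Dmax % given as graded codes.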

T1 sequence (P51532 whole entry): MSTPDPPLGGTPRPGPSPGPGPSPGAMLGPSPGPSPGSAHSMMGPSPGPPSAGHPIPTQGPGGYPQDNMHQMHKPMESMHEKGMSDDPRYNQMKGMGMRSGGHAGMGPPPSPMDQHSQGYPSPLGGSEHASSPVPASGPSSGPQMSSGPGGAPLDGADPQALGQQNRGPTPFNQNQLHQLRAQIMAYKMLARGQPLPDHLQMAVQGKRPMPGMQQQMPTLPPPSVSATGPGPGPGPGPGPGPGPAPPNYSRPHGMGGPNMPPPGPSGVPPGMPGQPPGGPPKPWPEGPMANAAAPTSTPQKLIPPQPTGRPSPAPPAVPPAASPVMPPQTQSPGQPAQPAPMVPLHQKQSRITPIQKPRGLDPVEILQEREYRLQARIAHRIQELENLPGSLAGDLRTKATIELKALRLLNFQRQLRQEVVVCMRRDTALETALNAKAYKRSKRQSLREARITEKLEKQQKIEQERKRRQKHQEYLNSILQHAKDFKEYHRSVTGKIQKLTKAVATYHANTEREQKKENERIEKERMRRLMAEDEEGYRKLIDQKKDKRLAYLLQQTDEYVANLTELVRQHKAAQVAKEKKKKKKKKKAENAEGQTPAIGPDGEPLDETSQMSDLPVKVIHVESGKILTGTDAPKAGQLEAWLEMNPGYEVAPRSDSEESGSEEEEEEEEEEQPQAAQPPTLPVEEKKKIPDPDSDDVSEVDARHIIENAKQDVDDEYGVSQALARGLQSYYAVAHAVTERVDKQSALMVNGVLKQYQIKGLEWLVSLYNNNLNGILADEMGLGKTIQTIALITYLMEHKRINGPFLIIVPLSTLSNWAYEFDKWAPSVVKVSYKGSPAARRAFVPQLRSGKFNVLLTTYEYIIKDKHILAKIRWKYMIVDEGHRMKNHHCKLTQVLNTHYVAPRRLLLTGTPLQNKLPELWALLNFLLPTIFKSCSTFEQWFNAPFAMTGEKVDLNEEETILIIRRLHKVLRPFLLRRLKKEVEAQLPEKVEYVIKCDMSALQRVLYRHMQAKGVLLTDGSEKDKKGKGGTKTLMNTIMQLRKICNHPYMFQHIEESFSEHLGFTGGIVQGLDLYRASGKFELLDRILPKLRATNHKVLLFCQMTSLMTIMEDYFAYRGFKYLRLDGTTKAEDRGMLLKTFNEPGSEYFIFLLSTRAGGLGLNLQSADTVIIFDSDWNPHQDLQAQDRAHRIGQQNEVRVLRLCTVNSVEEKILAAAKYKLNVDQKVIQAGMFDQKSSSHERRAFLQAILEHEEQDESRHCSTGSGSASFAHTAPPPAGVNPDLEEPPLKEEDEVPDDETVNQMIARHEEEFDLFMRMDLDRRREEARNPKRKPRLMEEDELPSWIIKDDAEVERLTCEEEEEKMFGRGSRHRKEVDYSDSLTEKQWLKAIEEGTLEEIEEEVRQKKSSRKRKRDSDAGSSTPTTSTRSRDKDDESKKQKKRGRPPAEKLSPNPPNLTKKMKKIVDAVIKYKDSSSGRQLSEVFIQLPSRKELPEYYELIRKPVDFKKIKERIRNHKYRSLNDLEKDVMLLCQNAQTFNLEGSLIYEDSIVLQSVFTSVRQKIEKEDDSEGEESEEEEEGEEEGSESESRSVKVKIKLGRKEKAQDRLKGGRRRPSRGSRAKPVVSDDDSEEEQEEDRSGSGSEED
T2 sequence (P51531 whole entry): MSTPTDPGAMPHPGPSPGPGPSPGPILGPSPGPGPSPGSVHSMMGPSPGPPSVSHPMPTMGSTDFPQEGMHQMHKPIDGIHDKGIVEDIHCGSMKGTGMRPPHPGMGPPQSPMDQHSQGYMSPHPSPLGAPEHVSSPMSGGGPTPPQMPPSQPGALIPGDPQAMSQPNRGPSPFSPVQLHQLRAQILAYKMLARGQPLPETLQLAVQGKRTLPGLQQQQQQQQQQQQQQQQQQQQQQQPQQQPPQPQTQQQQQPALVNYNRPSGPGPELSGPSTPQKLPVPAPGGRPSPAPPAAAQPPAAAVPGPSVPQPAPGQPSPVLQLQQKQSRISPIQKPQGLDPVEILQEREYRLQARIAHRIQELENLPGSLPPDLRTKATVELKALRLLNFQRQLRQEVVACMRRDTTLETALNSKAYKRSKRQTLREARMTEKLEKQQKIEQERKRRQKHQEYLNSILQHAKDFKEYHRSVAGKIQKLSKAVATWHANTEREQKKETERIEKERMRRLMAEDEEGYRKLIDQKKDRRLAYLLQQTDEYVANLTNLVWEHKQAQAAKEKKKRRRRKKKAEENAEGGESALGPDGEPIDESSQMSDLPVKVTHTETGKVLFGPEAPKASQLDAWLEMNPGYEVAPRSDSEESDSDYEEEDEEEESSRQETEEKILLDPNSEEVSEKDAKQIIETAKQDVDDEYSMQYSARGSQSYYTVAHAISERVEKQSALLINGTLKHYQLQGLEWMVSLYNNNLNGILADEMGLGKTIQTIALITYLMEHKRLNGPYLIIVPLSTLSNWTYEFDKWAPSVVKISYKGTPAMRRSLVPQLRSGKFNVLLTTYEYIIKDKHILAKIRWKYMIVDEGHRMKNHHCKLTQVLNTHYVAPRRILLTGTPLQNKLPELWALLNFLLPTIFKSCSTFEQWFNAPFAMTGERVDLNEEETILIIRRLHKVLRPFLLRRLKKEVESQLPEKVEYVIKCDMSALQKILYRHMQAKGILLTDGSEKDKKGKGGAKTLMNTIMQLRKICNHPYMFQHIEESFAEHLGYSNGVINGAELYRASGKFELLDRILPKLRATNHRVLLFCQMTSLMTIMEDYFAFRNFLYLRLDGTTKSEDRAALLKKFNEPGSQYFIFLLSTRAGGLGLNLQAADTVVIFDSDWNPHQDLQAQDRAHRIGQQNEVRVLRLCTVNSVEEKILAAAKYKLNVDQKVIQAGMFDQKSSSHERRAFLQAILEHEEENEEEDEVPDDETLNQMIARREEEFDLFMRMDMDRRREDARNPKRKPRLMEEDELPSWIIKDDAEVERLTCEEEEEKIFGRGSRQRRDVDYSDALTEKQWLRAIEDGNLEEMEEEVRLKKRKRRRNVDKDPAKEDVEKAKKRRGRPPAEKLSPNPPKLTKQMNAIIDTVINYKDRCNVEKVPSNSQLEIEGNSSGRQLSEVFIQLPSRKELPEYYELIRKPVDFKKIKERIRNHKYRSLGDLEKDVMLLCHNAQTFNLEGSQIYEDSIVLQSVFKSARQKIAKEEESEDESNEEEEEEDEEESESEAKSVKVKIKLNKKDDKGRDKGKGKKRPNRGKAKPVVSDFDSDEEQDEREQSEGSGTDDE

For `CN(Cc1cnc(N2C3CCC2CN(c2cc(-c4ccccc4O)nnc2N)C3)nc1)CC1CCN(c2ccc3c(c2)n(C)c(=O)n3C2CCC(=O)NC2=O)CC1` (stereo not shown) [I-282, 3-(5-(4-((((2-(3-(3-amino-6-(2-hydroxyphenyl)pyridazin-4-yl)-3,8-diazabicyclo[3.2.1]octan-8-yl)pyrimidin-5-yl)methyl)(methyl)amino)methyl)piperidin-1-yl)-3-methyl-2-oxo-2,3-dihydro-1H-benzo[d]imidazol-1-yl)piperidine-2,6-dione], the Dmax on SMARCA4 and on SMARCA2 [1] was over 90% in each case. Further, the 50% degradation concentration (DC50) on SMARCA4 and on SMARCA2 [1] was under 100 nM in each case.
As to `CN(CCCCCc1cnc(N2C3CCC2CN(c2cc(-c4ccccc4O)nnc2N)C3)nc1)Cc1ccc2c(c1)n(C)c(=O)n2C1CCC(=O)NC1=O` (stereo not shown) [I-283], at SMARCA4, the greatest degradation seen (Dmax) is over 90% and the half-maximal degradation concentration (DC50) was under 100 nM. Moreover, on SMARCA2 [1], the Dmax is over 90% and the DC50 is under 100 nM.
Turning to `Cn1c(=O)n(C2CCC(=O)NC2=O)c2ccc(CCC(=O)N3CCC(c4cnc(N5C6CCC5CN(c5cc(-c7ccccc7O)nnc5N)C6)nc4)CC3)cc21` (stereo not shown) [I-286], on SMARCA4, the greatest degradation seen (Dmax) was over 90% and the DC50 was under 100 nM. Also, at SMARCA2 [1], the maximal degradation (Dmax) lay within 70 to 90% and the DC50 lay within 100 to 500 nM.
The like results for `Cn1c(=O)n(C2CCC(=O)NC2=O)c2ccc(CCCN3CCC(c4cnc(N5CCN(c6cc(-c7ccccc7O)nnc6N)CC5)nc4)CC3)cc21` (stereo not shown) [I-288] were, in that order, over 90%, under 100 nM, over 90% and under 100 nM.
Taken in the same sequence, the figures for `Cn1c(=O)n(C2CCC(=O)NC2=O)c2ccc(CCCN3CCCC(c4cnc(N5C6CCC5CN(c5cc(-c7ccccc7O)nnc5N)C6)nc4)C3)cc21` (stereo not shown) [I-289] were 50 to 70%, under 100 nM, 70 to 90% and under 100 nM.
Taken in the same sequence, the figures for `Cn1c(=O)n(C2CCC(=O)NC2=O)c2cccc(CCCN3CCCC(c4cnc(N5C6CCC5CN(c5cc(-c7ccccc7O)nnc5N)C6)nc4)C3)c21` (stereo not shown) [I-292] were over 90%, under 100 nM, over 90% and under 100 nM.
Take `Cn1c(=O)n(C2CCC(=O)NC2=O)c2ccc(CCN3CCN(C(=O)c4cnc(N5C6CCC5CN(c5cc(-c7ccccc7O)nnc5N)C6)nc4)CC3)cc21` (stereo not shown) [I-293, 3-(5-(2-(4-(2-(3-(3-amino-6-(2-hydroxyphenyl)pyridazin-4-yl)-3,8-diazabicyclo[3.2.1]octan-8-yl)pyrimidine-5-carbonyl)piperazin-1-yl)ethyl)-3-methyl-2-oxo-2,3-dihydro-1H-benzo[d]imidazol-1-yl)piperidine-2,6-dione]: the Dmax on SMARCA4 and on SMARCA2 [1] was over 90% throughout. Further, the DC50 on SMARCA4 and on SMARCA2 [1] was under 100 nM in each case.
Turning to `Cn1c(=O)n(C2CCC(=O)NC2=O)c2ccc(CC(=O)N3CCN(Cc4cnc(N5C6CCC5CN(c5cc(-c7ccccc7O)nnc5N)C6)nc4)CC3)cc21` (stereo not shown) [I-294], on SMARCA4, the Dmax was over 90% and the DC50 is under 100 nM. For the same compound, at SMARCA2 [1], the greatest degradation seen (Dmax) was over 90% and the half-maximal degradation concentration (DC50) is under 100 nM.
As for `Cn1c(=O)n(C2CCC(=O)NC2=O)c2ccc(C#CCCNC(=O)Cc3cnc(N4C5CCC4CN(c4cc(-c6ccccc6O)nnc4N)C5)nc3)cc21` (stereo not shown) [I-295], the Dmax at SMARCA4 and on SMARCA2 [1] was under 50% throughout. For the same compound, the half-maximal degradation concentration (DC50) at SMARCA4 is under 100 nM; at SMARCA2 [1], over 1000 nM.
Turning to `Cn1c(=O)n(C2CCC(=O)NC2=O)c2ccc(CCCCNC(=O)Cc3cnc(N4C5CCC4CN(c4cc(-c6ccccc6O)nnc4N)C5)nc3)cc21` (stereo not shown) [I-296], at SMARCA4, the greatest degradation seen (Dmax) was 70 to 90% and the half-maximal degradation concentration (DC50) is under 100 nM. In addition, on SMARCA2 [1], the maximal degradation (Dmax) was over 90% and the half-maximal degradation concentration (DC50) is under 100 nM.
For the compound `CN1C(=O)CCC(n2c(=O)n(C)c3cc(CCCN4CCC(c5cnc(N6C7CCC6CN(c6cc(-c8ccccc8O)nnc6N)C7)nc5)CC4)ccc32)C1=O` (stereo not shown) [I-297], the Dmax at SMARCA4 is under 50%. For the same compound, on SMARCA2 [1], the Dmax is under 50% and the half-maximal degradation concentration (DC50) is over 1000 nM.
In the case of `CN(CCCC#Cc1cnc(N2C3CCC2CN(c2cc(-c4ccccc4O)nnc2N)C3)nc1)Cc1ccc2c(c1)n(C)c(=O)n2C1CCC(=O)NC1=O` (stereo not shown) [I-298], at SMARCA4, the Dmax was over 90% and the DC50 is under 100 nM. In addition, at SMARCA2 [1], the Dmax was over 90% and the DC50 was under 100 nM.
For `CN(CCCc1cnc(N2C3CCC2CN(c2cc(-c4ccccc4O)nnc2N)C3)nc1)Cc1cccc2c1n(C)c(=O)n2C1CCC(=O)NC1=O` (stereo not shown) [I-299], on SMARCA4, the greatest degradation seen (Dmax) was over 90% and the DC50 is under 100 nM. Also, at SMARCA2 [1], the Dmax is over 90% and the half-maximal degradation concentration (DC50) was under 100 nM.
Turning to `Cn1c(=O)n(C2CCC(=O)NC2=O)c2cccc(C#CCN3CCCC(c4cnc(N5C6CCC5CN(c5cc(-c7ccccc7O)nnc5N)C6)nc4)C3)c21` (stereo not shown) [I-300], the Dmax at SMARCA4 was 70 to 90%; at SMARCA2 [1] it was over 90%. For the same compound, the DC50 at SMARCA4 and at SMARCA2 [1] was under 100 nM throughout.
Consider `Cn1c(=O)n(C2CCC(=O)NC2=O)c2ccc(CCCCCCCCCNC(=O)c3cccc(C#Cc4cc(NC(=O)Nc5ccnc(Cl)c5)ccn4)c3)cc21` (stereo not shown) [I-301, 3-[2-[4-[(2-chloro-4-pyridyl)carbamoylamino]-2-pyridyl]ethynyl]-N-[9-[1-(2,6-dioxo-3-piperidyl)-3-methyl-2-oxo-benzimidazol-5-yl]nonyl]benzamide], for which the greatest degradation seen (Dmax) at SMARCA4 and on SMARCA2 [1] was under 50% throughout. For the same compound, the DC50 on SMARCA4 and at SMARCA2 [1] was 100 to 500 nM in each case.
As for `Cc1ncsc1-c1ccc(CNC(=O)[C@@H]2C[C@@H](O)CN2C(=O)[C@@H](NC(=O)CN2CCC(c3nccc(N4C5CCC4CN(c4cc(-c6ccccc6O)nnc4N)C5)n3)CC2)C(C)(C)C)cc1` [I-450], the maximal degradation (Dmax) on SMARCA4 was 50 to 70%; on SMARCA2 [1], under 50%. The DC50 on SMARCA4 and on SMARCA2 [1] was 100 to 500 nM in each case.
As to `Cc1ncsc1-c1ccc(CNC(=O)[C@@H]2C[C@@H](O)CN2C(=O)[C@@H](NC(=O)CN2CCC(c3cnc(N4CCN(c5cc(-c6ccccc6O)nnc5N)CC4)nc3)CC2)C(C)(C)C)cc1` [I-451], the maximal degradation (Dmax) on SMARCA4 is 70 to 90%; on SMARCA2 [1] it was over 90%. The DC50 on SMARCA4 and at SMARCA2 [1] was 100 to 500 nM throughout.
Turning to `Nc1nnc(-c2ccccc2O)cc1N1CC2CCC(C1)N2c1ncc(C2CCN(CCCCCCCCCCOc3ccc(Oc4ccc(N(Cc5ccccc5)C(=O)CCl)cc4)cc3)CC2)cn1` [I-533, N-(4-(4-((10-(4-(2-(3-(3-amino-6-(2-hydroxyphenyl)pyridazin-4-yl)-3,8-diazabicyclo[3.2.1]octan-8-yl)pyrimidin-5-yl)piperidin-1-yl)decyl)oxy)phenoxy)phenyl)-N-benzyl-2-chloroacetamide], the Dmax at SMARCA2 [2] (A549, A549 cells) is under 50%. In addition, the half-maximal degradation concentration (DC50) at SMARCA2 [2] was over 1000 nM.
Take `CC(C)(C)[C@H](NC(=O)[C@H]1CC2(C1)C[C@H](N1CCC(c3cnc(N4C5CCC4CN(c4cc(-c6ccccc6O)nnc4N)C5)nc3)CC1)C2)C(=O)N1C[C@H](O)C[C@H]1C(=O)NOc1ccc(-c2ccccc2F)cc1` (stereo partly drawn) [I-538, (2S,4R)-1-[(2S)-2-[[2-[4-[2-[3-[3-amino-6-(2-hydroxyphenyl)pyridazin-4-yl]-3,8-diazabicyclo[3.2.1]octan-8-yl]pyrimidin-5-yl]-1-piperidyl]spiro[3.3]heptane-6-carbonyl]amino]-3,3-dimethyl-butanoyl]-N-[4-(2-fluorophenyl)phenoxy]-4-hydroxy-pyrrolidine-2-carboxamide]: at SMARCA2 [2], the DC50 was over 1000 nM.
